Test results as given in patent publication US5990146A, “Benzimidazoles for inhibiting protein tyrosine kinase mediated cellular proliferation” (Warner-Lambert Company, priority 1998, dated 1999).
Counter-ions that a name gives are not always drawn.

Columns and labels:
insulin receptor (INSr) = molecular target: T1, insulin receptor (INSr) (Homo sapiens, UniProt P06213); assay: Insulin receptor kinase assay; type: biochemical; details: Table 1; as for EGF receptor with 10 mM manganese chloride
T1 construct: An assay using the intracellular kinase domains of insulin receptor (INSr) is performed
T1 sequence (P06213 1023-1298 limits assumed, species assumed): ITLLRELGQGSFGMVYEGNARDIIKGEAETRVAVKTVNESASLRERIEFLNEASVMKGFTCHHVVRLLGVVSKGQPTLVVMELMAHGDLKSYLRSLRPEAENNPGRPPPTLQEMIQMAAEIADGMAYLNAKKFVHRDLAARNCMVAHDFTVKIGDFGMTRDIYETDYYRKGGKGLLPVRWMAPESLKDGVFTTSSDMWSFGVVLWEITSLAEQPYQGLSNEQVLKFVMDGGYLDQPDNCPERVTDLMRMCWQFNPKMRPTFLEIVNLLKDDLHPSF

[1] = molecular target: T2, Human EGF receptor tyrosine kinase (Homo sapiens, UniProt P00533); assay: EGFr tyrosine kinase assay; type: biochemical; details: Table 1; 10 μM ATP, 25° C., 10 minutes
T2 construct: Human EGF receptor tyrosine kinase is isolated from A431 human epidermoid carcinoma cells; endogenous in cells; host or cells: A431 human epidermoid carcinoma cells (detergent lysate, fast Q sepharose fractions)
T2 sequence (P00533 25-1210): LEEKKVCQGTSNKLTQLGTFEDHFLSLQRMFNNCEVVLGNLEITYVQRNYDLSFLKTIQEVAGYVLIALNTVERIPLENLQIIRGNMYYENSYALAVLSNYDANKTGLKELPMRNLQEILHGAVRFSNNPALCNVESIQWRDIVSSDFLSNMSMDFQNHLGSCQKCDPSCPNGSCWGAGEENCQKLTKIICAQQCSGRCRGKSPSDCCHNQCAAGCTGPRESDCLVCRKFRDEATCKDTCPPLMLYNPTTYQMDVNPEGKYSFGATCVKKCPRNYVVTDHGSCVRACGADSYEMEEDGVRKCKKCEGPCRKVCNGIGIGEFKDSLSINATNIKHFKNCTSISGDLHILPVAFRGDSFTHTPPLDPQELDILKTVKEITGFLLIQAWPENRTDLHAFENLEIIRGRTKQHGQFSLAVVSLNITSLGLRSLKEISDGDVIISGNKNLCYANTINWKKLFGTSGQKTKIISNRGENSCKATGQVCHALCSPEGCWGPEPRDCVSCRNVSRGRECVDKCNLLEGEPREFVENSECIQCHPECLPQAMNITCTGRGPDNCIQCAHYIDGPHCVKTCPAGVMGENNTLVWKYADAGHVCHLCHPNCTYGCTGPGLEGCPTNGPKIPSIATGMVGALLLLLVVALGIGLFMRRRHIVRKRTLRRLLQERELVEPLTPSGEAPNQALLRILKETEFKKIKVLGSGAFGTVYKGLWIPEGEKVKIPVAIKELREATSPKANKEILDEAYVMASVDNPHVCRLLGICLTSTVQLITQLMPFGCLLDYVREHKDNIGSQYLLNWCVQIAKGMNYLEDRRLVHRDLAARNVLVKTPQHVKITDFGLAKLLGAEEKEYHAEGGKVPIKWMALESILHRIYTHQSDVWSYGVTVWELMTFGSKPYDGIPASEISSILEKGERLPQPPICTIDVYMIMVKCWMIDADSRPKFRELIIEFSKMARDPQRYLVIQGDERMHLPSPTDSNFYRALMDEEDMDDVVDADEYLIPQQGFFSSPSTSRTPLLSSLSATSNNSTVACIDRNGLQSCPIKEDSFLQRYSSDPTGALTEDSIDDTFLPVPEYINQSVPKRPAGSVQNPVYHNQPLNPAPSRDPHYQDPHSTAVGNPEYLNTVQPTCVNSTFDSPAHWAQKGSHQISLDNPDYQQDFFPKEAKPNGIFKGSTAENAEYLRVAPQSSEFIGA

[2] = molecular target: T3, PDGF receptor tyrosine kinase (mouse PDGF-β) (Mus musculus, UniProt P05622); assay: PDGFr tyrosine kinase assay (poly glutamate-tyrosine phosphorylation); type: biochemical; details: Table 1; 10 minutes at 25° C.
T3 construct: PCR primers are designed to amplify a fragment of DNA that codes for the intracellular tyrosine kinase domain; made in house; host or cells: Sf9 insect cells (baculovirus), cell lysate
T3 sequence (P05622 599-961 limits assumed): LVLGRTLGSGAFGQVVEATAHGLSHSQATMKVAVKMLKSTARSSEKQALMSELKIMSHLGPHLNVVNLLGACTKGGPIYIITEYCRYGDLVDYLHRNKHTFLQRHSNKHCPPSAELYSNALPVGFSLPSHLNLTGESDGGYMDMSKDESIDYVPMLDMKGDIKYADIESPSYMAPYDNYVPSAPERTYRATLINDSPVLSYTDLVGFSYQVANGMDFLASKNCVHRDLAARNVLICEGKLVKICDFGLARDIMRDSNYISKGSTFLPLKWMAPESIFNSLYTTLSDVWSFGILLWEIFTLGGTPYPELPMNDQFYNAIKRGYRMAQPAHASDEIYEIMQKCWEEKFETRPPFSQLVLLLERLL
Method: Platelet Derived Growth Factor Receptor (PDGFr) and Fibroblast Growth Factor Receptor (FGFr)
Full length cDNAs for the mouse PDGF-β and human FGF-1 (flg) receptor tyrosine kinases were obtained from J. Escobedo and are prepared as described in J. Biol. Chem., 262: 1482-1487 (1991). PCR primers are designed to amplify a fragment of DNA that codes for the intracellular tyrosine kinase domain. The fragment is melded into a baculovirus vector, cotransfected with AcMNPV DNA, and the recombinant virus isolated. SF9 insect cells are infected with the virus to overexpress the protein, and the cell lysate is used for the assay.
The assay is performed in 96-well plates (100 μL/incubation/well), and conditions are optimized to measure the incorporation of ^32 p from [γ^32 P]-ATP into a glutamate-tyrosine copolymer substrate. Briefly, to each well is added 82.5 μL of incubation buffer containing 25 mM Hepes (pH 7.0), 150 mM NaCl, 0.1% Triton X-100, 0.2 mM PMSF, 0.2 mM sodium vanadate, 10 mM manganese chloride, and 750 μg/mL of poly (4:1) glutamate-tyrosine followed by 2.5 μL of inhibitor and 5 μL of enzyme lysate (7.5 μg/μL FGFR-TK or 6.0 μg/μL PDGFR-TK) to initiate the reaction. Following a 10 minute incubation at 25° C., 10 μL of [γ^32 P]-ATP (0.4 μCi plus 50 μM ATP) is added to each well and samples are incubated for an additional 10 minutes at 25° C. The reaction is terminated by the addition of 100 μL of 30% trichloroacetic acid (TCA) containing 20 mM sodium pyrophosphate and precipitation of material onto glass fiber filter mats (Wallac). Filters are washed 3 times with 15% TCA containing 100 mM sodium pyrophosphate and the radioactivity retained on the filters counted in a Wallac 1250 Betaplate reader. Nonspecific activity is defined as radioactivity retained on the filters following incubation of samples with buffer alone (no enzyme). Specific enzymatic activity is defined as total activity (enzyme plus buffer) minus nonspecific activity.

c-Src = molecular target: T4, c-Src (Homo sapiens, UniProt P12931); assay: c-Src kinase assay; type: biochemical; details: Table 1; 5 μM ATP, room temperature, 10 minutes
T4 construct: made in house; host or cells: baculovirus infected insect cells
T4 sequence (P12931 whole entry, species assumed): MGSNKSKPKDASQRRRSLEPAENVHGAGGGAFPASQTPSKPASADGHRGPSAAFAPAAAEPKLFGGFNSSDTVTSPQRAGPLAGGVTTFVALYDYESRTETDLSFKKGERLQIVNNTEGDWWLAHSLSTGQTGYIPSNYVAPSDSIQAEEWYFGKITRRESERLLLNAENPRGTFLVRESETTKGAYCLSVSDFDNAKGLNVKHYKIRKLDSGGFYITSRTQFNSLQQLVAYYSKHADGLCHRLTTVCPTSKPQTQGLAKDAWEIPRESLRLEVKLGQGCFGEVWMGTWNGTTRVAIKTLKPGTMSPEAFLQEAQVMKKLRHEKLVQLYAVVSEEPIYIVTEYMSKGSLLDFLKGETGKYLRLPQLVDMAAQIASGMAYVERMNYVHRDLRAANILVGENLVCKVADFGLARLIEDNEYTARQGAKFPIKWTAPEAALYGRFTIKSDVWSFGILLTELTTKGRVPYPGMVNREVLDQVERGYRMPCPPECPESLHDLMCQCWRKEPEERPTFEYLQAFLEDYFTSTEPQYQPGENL
Method: c-Src kinase is purified from baculovirus infected insect cell lysates using an antipeptide monoclonal antibody directed against the N-terminal 2-17 amino acids as described previously by Fry, et al, Anticancer Drug Design. 9: 331-351 (1994). […] At the end of the lysate incubation, the beads are rinsed 3 times in lysis buffer, resuspended in lysis buffer containing 10% glycerol, and frozen. These latex beads are thawed, rinsed 3 times in assay buffer which is comprised of 40 mM tris pH 7.5, 5 mM magnesium chloride, and suspended in the same buffer. […] The reaction is started at room temperature by addition of the ATP and quenched 10 minutes later by the addition of 125 μL of 30% TCA, 0.1 M sodium pyrophosphate for 15 minutes on ice. The plate is then filtered and the wells washed with two 250-μL aliquots of 15% TCA, 0.1 M pyrophosphate. The filters are punched, counted in a liquid scintillation counter, and the data examined for inhibitory activity in comparison to a known inhibitor such as erbstatin. The method is described more fully in J. Med. Chem., 37: 598-609 (1994).

[3] = molecular target: T5, FGF receptor tyrosine kinase (human FGF-1 (flg)) (Homo sapiens, UniProt P11362); assay: FGFr tyrosine kinase assay (poly glutamate-tyrosine phosphorylation); type: biochemical; details: Table 1; 10 minutes at 25° C.
T5 construct: PCR primers are designed to amplify a fragment of DNA that codes for the intracellular tyrosine kinase domain; made in house; host or cells: Sf9 insect cells (baculovirus), cell lysate
T5 sequence (P11362 478-767 limits assumed): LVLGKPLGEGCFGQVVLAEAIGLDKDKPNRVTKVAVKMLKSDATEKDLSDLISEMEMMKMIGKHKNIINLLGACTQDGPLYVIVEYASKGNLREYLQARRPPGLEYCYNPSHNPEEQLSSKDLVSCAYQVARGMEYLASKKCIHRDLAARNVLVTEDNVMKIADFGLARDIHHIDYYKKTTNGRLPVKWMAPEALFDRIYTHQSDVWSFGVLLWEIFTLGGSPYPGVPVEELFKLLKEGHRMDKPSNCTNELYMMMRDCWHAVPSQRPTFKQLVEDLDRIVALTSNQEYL
Method: Platelet Derived Growth Factor Receptor (PDGFr) and Fibroblast Growth Factor Receptor (FGFr) Full length cDNAs for the mouse PDGF-β and human FGF-1 (flg) receptor tyrosine kinases were obtained from J. Escobedo and are prepared as described in J. Biol. Chem., 262: 1482-1487 (1991). PCR primers are designed to amplify a fragment of DNA that codes for the intracellular tyrosine kinase domain. The fragment is […] into a baculovirus vector, cotransfected with AcMNPV DNA, and the recombinant virus isolated. SF9 insect cells are infected with the virus to overexpress the protein, and the cell lysate is used for the […] and FGFr The assay is performed in 96-well plates (100 μL/incubation/well), and conditions are optimized to measure the incorporation of ^32 p from [γ^32 P]-ATP into a glutamate-tyrosine copolymer substrate. […] The reaction is terminated by the addition of 100 μL of 30% trichloroacetic acid (TCA) containing 20 mM sodium pyrophosphate and precipitation of material onto glass fiber filter mats (Wallac). Filters are washed 3 times with 15% TCA containing 100 mM sodium pyrophosphate and the radioactivity retained on the filters counted in a Wallac 1250 Betaplate reader. Nonspecific activity is defined as radioactivity retained on the filters following incubation of samples with buffer alone (no enzyme). Specific enzymatic activity is defined as total activity (enzyme plus buffer) minus nonspecific activity.

[4] = test system: PDGF receptor autophosphorylation in rat aorta smooth muscle cells; assay: PDGF Receptor Autophosphorylation Assay in rat aorta smooth muscle cells; type: cell-based; details: Table 2, PDGF-BB 30 ng/mL, 2 hours pre-incubation, read-out: IC50, inhibition of PDGF-stimulated receptor autophosphorylation
Method: Rat aorta smooth muscle cells (RASMC) are isolated from the thoracic aorta of rats and explanted according to the method of Ross, J. Cell. […] Cells are grown in Dulbecco's modified Eagle's medium (DMEM, Gibco) containing 10% fetal calf serum (FBS, Hyclone, Logan, Utah), 1% glutamine (Gibco) and 1% penicillin/streptomycin (Gibco). Cells are identified as smooth muscle cells by their "hill and valley" growth pattern and by fluorescent staining with a monoclonal antibody specific for SMC μ-actin (Sigma). RASMC are used between passages 5 and 20 for all experiments. Test compounds are prepared in dimethylsulfoxide (DMSO) in order to achieve consistency in the vehicle and to ensure compound solubility. Appropriate DMSO controls are simultaneously evaluated with the test compounds.
Rat aortic smooth muscle cells are grown to confluencey in 100 mm dishes. Growth medium is removed and replaced with serum-free medium and cells are incubated at 37° C. for an additional 24 hours. Test compounds are then added directly to the medium and cells incubated for an additional 2 hours. After 2 hours PDGF-BB is added at a final concentration of 30 ng/mL for 5 minutes at 37° C. to stimulate autophosphorylation of PDGF receptors. Following growth factor treatment, the medium is removed, and cells are washed with cold phosphate-buffered saline and immediately lysed with 1 mL of lysis buffer (50 mM Hepes, pH 7.5, 150 mM NaCl, 10% glycerol, 1% Triton-X 100, 1 mM EDTA, 1 mM EGTA, 50 mM NaF, 1 mM sodium orthovanadate, 30 mM p-nitrophenyl phosphate, 10 mM sodium pyrophosphate, 1 mM phenylmethyl sulfonyl fluoride, 10 μg/mL aprotinin and 10 μg/mL leupeptin). Lysates are centrifuged at 10,000 ×g for 10 minutes. […] Following the incubation, protein-A-sepharose beads are added for 2 hours with continuous mixing, and immune complexes bound to the beads washed 4 times with 1 mL lysis wash buffer. Immune complexes are solubilized in 40 μL of Laemmli sample buffer and electrophoresed in 8-16% SDS polyacrylamide gels. Following electrophoresis, separated proteins are transferred to nitrocellulose and immunoblotted with a 1:1000 dilution of antiphosphotyrosine monoclonal antibody (UBI clone 4G10; #05-321). Following extensive washing with PBS-0.2% tween-20, the blots are incubated with horseradish peroxidase labeled goat antimouse IgG (1:5000; Bio-Rad Inc, Hercules, Calif.) and protein levels are detected by enhanced chemiluminescence (ECL) detection system according to the instructions of the supplier (Amersham Inc, Arlington Heights, Ill.). The density of the protein bands are determined using NIH Image software (v. 1.56) and IC50 values are generated from the densitometric data.

With `c1ccc(-n2cnc3ccccc32)cc1` [Example 1, 1-Phenylbenzimidazole] the IC50 (insulin receptor (INSr)) was over 50 µM and the IC50 [1] was over 50 µM.

With `Nc1cccc(-n2cnc3ccccc32)c1` [Example 3, 1-(3-Aminophenyl)benzimidazole] the IC50 [2] was 3.6 µM, the IC50 (insulin receptor (INSr)) was over 50 µM and the IC50 (c-Src) was over 50 µM. The IC50 [1] was over 50 µM.

Work on `COC(=O)c1ccc(-n2cnc3ccccc32)cc1` [Example 7, 1-(4-Carbomethoxyphenyl)benzimidazole] yielded an IC50 [3] of over 50 µM, an IC50 [2] of 7.2 µM and an IC50 (insulin receptor (INSr)) of over 50 µM. The IC50 (c-Src) was over 50 µM and the IC50 [1] was over 50 µM.

`Nc1ccc(-n2cnc3ccccc32)cc1` [Example 8, 1-(4-Aminophenyl)benzimidazole Dihydrochloride] was tested, and the IC50 [2] was 5.6 µM and the IC50 [4] was over 10 µM.

Compound `Cc1ccc2c(c1)ncn2-c1ccccc1` [Example 12, 5-Methyl-1-phenylbenzimidazole Hydrochloride] has an IC50 [3] of over 50 µM, an IC50 [2] of 4.4 µM and an IC50 (insulin receptor (INSr)) of over 50 µM. The IC50 (c-Src) was over 50 µM and the IC50 [1] was 50 µM.

For `Oc1ccc2c(c1)ncn2-c1ccccc1` [Example 14, 5-Hydroxy-1-phenylbenzimidazole], the IC50 [3] was 6.4 µM, the IC50 [2] was 0.4 µM and the IC50 (insulin receptor (INSr)) was over 50 µM. For the same compound, the IC50 [1] was over 50 µM.

With `O=C(O)c1ccc2c(c1)ncn2-c1ccccc1` [Example 16, 1-Phenylbenzimidazole-5-carboxylic Acid Hydrochloride] the IC50 [3] was 28 µM, the IC50 [2] was 9.3 µM and the IC50 (insulin receptor (INSr)) was over 50 µM. The IC50 (c-Src) was 50 µM and the IC50 [1] was over 50 µM.

`COC(=O)c1ccc2c(c1)ncn2-c1ccccc1` [Example 17, Methyl 1-Phenylbenzimidazole-5-carboxylate] showed an IC50 [3] of 6.6 µM, an IC50 [2] of 0.8 µM and an IC50 (insulin receptor (INSr)) of over 50 µM. The IC50 (c-Src) was over 50 µM and the IC50 [1] was over 50 µM.

`NC(=O)c1ccc2c(c1)ncn2-c1ccccc1` [Example 18, 1-Phenylbenzimidazole-5-carboxamide Hydrochloride] gave an IC50 [3] of 9.9 µM, an IC50 [2] of 1.6 µM and an IC50 (insulin receptor (INSr)) of over 50 µM. It also gave an IC50 (c-Src) of under 50 µM and an IC50 [1] of over 50 µM.

Work on `Nc1ccc2c(c1)ncn2-c1ccccc1` [Example 19, 5-Amino-1-phenylbenzimidazole] yielded an IC50 [3] of 36 µM, an IC50 [2] of 2.7 µM and an IC50 (insulin receptor (INSr)) of over 50 µM. The IC50 (c-Src) was over 50 µM and the IC50 [1] was over 50 µM.

With `O=Cc1ccc2c(c1)ncn2-c1ccccc1` [Example 21, 1-Phenylbenzimidazole-5-carboxaldehyde] the IC50 [3] was 50 µM, the IC50 [2] was 8.4 µM and the IC50 (insulin receptor (INSr)) was over 50 µM. It also gave an IC50 (c-Src) of 50 µM and an IC50 [1] of under 50 µM.

`OCc1ccc2c(c1)ncn2-c1ccccc1` [Example 26, 5-(Hydroxymethyl)-1-phenylbenzimidazole] showed an IC50 [3] of over 50 µM, an IC50 [2] of 11.7 µM and an IC50 (insulin receptor (INSr)) of over 50 µM. It also gave an IC50 (c-Src) of over 50 µM and an IC50 [1] of under 50 µM.

Compound `CC(=O)Oc1ccc2c(c1)ncn2-c1ccccc1` [Example 27, 5-Acetoxy-1-phenylbenzimidazole] has an IC50 [3] of 26 µM, an IC50 [2] of 1.8 µM and an IC50 (insulin receptor (INSr)) of over 50 µM. It also gave an IC50 (c-Src) of over 50 µM and an IC50 [1] of over 50 µM.

Work on `C=CCOc1ccc2c(c1)ncn2-c1ccccc1` [Example 32, 5-Allyloxy-1-phenylbenzimidazole Hydrochloride] yielded an IC50 [3] of 35 µM, an IC50 [2] of 0.6 µM and an IC50 (insulin receptor (INSr)) of over 50 µM. The IC50 (c-Src) was over 50 µM.

In the case of `NCCOc1ccc2c(c1)ncn2-c1ccccc1` [Example 35, 5-(2-Aminoethoxy)-1-phenylbenzimidazole Dihydrochloride], the IC50 [3] is reported as 27 µM, the IC50 [2] is reported as 0.7 µM and the IC50 (insulin receptor (INSr)) is reported as over 50 µM. The IC50 (c-Src) was under 50 µM.

`CN(C)CCOc1ccc2c(c1)ncn2-c1ccccc1` [Example 36, 5-[2-(N,N-Dimethylamino)ethoxy]-1-phenylbenzimidazole Dihydrochloride] gave an IC50 [3] of 45 µM, an IC50 [2] of 1.5 µM and an IC50 (insulin receptor (INSr)) of over 50 µM. The IC50 (c-Src) was 29 µM.

Work on `COc1ccc2ncn(-c3ccccc3)c2c1` [Example 40, 6-Methoxy-1-phenylbenzimidazole] yielded an IC50 [2] of 6.4 µM and an IC50 [4] of over 10 µM.

`Oc1ccc2ncn(-c3ccccc3)c2c1` [Example 41, 6-Hydroxy-1-phenylbenzimidazole Hydrochloride] was tested, and the IC50 [2] was 2.1 µM, the IC50 (insulin receptor (INSr)) was under 50 µM and the IC50 (c-Src) was over 50 µM. The IC50 [1] was over 50 µM.

Work on `COC(=O)c1ccc2ncn(-c3ccccc3)c2c1` [Example 43, Methyl 1-phenylbenzimidazole-6-carboxylate Hydrochloride] yielded an IC50 [2] of 13 µM, an IC50 (insulin receptor (INSr)) of over 50 µM and an IC50 (c-Src) of over 50 µM. For the same compound, the IC50 [1] was over 50 µM.

`COC(=O)c1cc2c(cc1OC)ncn2-c1ccccc1` [Example 51, Methyl 5-methoxy-1-phenylbenzimidazole-6-carboxylate Hydrochloride] was tested, and the IC50 [3] was 50 µM, the IC50 [2] was 0.9 µM and the IC50 (insulin receptor (INSr)) was over 50 µM. The IC50 (c-Src) was 33 µM.

In the case of `COc1cc2ncn(-c3ccccc3)c2cc1CO` [Example 53, 6-Hydroxymethyl-5-methoxy-1-phenylbenzimidazole Hydrochloride], the IC50 [3] is reported as 12 µM, the IC50 [2] is reported as 0.4 µM and the IC50 (insulin receptor (INSr)) is reported as over 50 µM. It also gave an IC50 (c-Src) of 50 µM.

`COc1ccc2c(c1)ncn2-c1cccs1` [Example 55, 5-Methoxy-1-(2-thienyl)benzimidazole Hydrochloride] gave an IC50 [3] of 5.3 µM, an IC50 [2] of 2.5 µM and an IC50 (insulin receptor (INSr)) of over 50 µM. It also gave an IC50 (c-Src) of over 50 µM.
